Reference: patent publication US20230108049A1, “ORAL FAST-DISPERSING DOSAGE FORM OF RIMEGEPANT” (BIOHAVEN PHARMACEUTICAL HOLDING COMPANY LTD., priority 2020, published 2023)

Tests used:
CYP2C19 = CYP2C19 (Homo sapiens, UniProt P33261); experiment: In vitro enzyme inhibition; format: in vitro ADME; conditions: at clinically relevant concentrations
Text: (§1) Rimegepant is a substrate of CYP3A4 and CYP2C9 [see In Vivo Studies].

CYP3A4 [1] = target: T1, CYP3A4 (Homo sapiens, UniProt P08684); experiment: In vitro enzyme inhibition; format: in vitro ADME
T1 sequence (P08684 whole entry): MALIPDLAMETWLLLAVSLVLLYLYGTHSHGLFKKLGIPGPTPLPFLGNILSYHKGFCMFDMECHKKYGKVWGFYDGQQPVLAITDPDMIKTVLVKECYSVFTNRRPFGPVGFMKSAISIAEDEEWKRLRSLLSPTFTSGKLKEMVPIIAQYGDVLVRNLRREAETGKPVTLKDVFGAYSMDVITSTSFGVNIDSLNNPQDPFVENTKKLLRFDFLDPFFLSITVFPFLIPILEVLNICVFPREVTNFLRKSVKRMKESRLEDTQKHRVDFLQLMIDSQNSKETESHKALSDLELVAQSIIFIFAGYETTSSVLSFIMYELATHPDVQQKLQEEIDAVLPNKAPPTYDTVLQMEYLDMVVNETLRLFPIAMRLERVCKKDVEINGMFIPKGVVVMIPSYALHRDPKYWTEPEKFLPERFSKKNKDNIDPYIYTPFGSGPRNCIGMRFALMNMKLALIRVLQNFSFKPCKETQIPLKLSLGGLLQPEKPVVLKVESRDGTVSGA
Text: as §1

UGT1A1 = UGT1A1 (Homo sapiens, UniProt P22309); experiment: In vitro enzyme inhibition; format: in vitro ADME; conditions: at clinically relevant concentrations
UGT1A1, sequence (P22309 26-533): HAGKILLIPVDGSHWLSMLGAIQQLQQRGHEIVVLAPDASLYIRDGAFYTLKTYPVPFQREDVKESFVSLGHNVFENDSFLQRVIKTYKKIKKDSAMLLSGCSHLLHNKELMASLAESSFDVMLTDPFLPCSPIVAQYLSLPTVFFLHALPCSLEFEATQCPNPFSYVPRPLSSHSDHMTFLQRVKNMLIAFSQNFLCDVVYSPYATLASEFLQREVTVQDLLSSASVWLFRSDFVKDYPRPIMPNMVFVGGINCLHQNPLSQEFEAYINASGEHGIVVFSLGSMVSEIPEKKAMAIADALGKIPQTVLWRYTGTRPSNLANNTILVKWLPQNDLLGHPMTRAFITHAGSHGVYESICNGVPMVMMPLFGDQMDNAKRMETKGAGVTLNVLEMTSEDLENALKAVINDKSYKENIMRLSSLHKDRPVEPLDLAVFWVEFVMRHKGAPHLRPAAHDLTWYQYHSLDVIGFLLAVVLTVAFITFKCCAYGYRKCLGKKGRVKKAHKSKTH
Text: as §1

CYP1A2 = CYP1A2 (Homo sapiens, UniProt P05177); experiment: In vitro enzyme inhibition; format: in vitro ADME; conditions: at clinically relevant concentrations
Text: as §1

CYP2B6 = CYP2B6 (Homo sapiens, UniProt P20813); experiment: In vitro enzyme inhibition; format: in vitro ADME; conditions: at clinically relevant concentrations
Text: as §1

CYP2C9 = CYP2C9 (Homo sapiens, UniProt P11712); experiment: In vitro enzyme inhibition; format: in vitro ADME; conditions: at clinically relevant concentrations
Text: as §1

CYP2D6 = CYP2D6 (Homo sapiens, UniProt P10635); experiment: In vitro enzyme inhibition; format: in vitro ADME; conditions: at clinically relevant concentrations
CYP2D6, sequence (P10635 whole entry): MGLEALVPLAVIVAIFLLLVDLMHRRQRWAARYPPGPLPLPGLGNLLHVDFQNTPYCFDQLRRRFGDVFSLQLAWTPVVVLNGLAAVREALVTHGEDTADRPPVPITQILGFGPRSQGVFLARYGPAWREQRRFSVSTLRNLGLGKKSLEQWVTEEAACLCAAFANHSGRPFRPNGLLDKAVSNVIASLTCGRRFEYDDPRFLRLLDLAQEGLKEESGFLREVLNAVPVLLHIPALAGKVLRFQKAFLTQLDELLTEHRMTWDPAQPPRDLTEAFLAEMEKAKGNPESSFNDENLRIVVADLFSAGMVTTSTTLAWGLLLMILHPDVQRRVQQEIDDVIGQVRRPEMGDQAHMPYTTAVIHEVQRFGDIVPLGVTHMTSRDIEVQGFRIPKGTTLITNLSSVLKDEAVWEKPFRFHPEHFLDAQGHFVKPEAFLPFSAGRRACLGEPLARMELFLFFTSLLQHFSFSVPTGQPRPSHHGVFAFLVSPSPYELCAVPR
Text: as §1

[2] = Excretion after oral [14C]-rimegepant; format: in vivo, human; conditions: oral [14C]-rimegepant, healthy male subjects
Text: Following oral administration of [^14C]-rimegepant to healthy male subjects, 78% of the total radioactivity was recovered in feces and 24% in urine. Unchanged rimegepant is the major single component in excreted feces (42%) and urine (51%).

pregnant rabbits = experiment: Embryofetal development study, oral administration during organogenesis, rabbits; format: in vivo, rabbit
Experimental: The highest dose tested (50 mg/kg/day) was associated with plasma exposures (AUC) approximately 10 times that in humans at the MRHD.

OATP1B1 [3] = target: T2, OATP1B1 (Homo sapiens, UniProt Q9Y6L6); experiment: In vitro transporter inhibition; format: in vitro ADME
T2 sequence (Q9Y6L6 whole entry): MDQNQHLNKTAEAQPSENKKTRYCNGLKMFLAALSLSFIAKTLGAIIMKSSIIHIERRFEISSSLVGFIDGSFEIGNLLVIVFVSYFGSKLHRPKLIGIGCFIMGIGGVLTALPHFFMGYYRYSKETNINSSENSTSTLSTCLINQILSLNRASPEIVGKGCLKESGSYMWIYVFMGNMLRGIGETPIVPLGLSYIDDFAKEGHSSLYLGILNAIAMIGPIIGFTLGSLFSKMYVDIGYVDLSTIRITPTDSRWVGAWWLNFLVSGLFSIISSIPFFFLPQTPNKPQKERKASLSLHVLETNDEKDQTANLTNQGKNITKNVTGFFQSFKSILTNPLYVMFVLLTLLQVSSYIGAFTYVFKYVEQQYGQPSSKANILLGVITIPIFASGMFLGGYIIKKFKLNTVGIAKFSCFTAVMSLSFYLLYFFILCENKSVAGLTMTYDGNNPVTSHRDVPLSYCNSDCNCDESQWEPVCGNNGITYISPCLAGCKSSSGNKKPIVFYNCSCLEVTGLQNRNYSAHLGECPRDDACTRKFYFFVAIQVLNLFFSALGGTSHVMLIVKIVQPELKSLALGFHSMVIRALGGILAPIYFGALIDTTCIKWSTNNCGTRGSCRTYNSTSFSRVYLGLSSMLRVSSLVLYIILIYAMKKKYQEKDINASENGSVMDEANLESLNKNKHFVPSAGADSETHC

BCRP [4] = target: T3, BCRP (Homo sapiens, UniProt Q9UNQ0); experiment: In vitro transporter substrate study; format: in vitro ADME
T3 sequence (Q9UNQ0 whole entry): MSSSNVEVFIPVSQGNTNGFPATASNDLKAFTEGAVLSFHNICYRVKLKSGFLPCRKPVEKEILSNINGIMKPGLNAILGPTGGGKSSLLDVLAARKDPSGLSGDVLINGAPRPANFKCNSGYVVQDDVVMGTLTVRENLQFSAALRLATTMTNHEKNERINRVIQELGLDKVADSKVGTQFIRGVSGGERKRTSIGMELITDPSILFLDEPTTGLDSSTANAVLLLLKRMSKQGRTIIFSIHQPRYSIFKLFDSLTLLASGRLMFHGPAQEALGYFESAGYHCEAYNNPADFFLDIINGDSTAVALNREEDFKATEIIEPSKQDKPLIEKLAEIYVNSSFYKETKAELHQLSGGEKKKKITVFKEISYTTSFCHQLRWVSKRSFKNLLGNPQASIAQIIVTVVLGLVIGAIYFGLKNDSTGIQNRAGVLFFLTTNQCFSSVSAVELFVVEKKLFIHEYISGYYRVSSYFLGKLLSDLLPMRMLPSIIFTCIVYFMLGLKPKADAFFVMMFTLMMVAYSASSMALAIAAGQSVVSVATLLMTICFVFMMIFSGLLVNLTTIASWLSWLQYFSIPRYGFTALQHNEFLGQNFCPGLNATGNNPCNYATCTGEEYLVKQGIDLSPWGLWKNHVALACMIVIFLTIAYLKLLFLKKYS
Experimental: (§2) Rimegepant is a substrate of P-gp and BCRP. Concomitant administration of inhibitors of P-gp or BCRP may increase the exposure of rimegepant [see Drug Interactions]. No dedicated drug interaction study was conducted to assess their effects on the pharmacokinetics of rimegepant.

P-gp [5] = target: T4, P-gp (Homo sapiens, UniProt P08183); experiment: In vitro transporter substrate study; format: in vitro ADME
T4 sequence (P08183 whole entry): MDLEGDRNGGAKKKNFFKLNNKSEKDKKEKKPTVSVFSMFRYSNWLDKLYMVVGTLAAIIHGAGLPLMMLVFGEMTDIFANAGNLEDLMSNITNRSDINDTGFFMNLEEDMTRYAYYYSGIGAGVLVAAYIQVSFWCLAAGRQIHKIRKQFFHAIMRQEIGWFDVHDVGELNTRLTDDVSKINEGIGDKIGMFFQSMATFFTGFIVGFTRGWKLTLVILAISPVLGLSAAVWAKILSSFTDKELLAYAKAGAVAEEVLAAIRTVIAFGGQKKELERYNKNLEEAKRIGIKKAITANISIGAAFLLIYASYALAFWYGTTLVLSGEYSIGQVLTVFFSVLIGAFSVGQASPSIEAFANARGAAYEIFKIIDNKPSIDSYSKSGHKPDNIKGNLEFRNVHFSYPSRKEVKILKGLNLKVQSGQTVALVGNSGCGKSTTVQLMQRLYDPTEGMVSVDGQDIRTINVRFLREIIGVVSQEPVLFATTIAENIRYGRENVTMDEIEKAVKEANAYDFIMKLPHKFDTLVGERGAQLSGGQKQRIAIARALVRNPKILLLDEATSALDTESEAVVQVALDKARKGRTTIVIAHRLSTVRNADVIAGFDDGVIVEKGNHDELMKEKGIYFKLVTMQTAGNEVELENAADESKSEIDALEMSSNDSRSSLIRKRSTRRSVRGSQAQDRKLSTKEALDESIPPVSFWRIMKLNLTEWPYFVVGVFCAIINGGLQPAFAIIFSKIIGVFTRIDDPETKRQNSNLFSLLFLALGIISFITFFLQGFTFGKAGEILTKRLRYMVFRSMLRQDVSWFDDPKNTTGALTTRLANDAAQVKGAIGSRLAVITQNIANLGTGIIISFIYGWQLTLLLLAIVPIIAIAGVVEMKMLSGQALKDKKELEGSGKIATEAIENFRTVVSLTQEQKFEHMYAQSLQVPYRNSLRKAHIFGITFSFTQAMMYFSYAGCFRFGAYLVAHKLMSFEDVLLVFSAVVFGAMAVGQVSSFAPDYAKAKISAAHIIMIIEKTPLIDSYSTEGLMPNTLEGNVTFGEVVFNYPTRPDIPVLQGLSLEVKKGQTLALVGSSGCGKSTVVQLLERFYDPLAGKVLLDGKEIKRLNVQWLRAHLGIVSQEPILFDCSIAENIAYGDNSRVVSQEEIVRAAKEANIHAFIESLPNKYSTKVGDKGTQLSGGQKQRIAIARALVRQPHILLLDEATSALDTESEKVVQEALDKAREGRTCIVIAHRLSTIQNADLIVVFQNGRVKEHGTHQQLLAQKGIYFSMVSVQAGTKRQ
Experimental: as §2

healthy volunteers = experiment: Resting blood pressure on concomitant administration with sumatriptan; format: in vivo, human; conditions: with sumatriptan 12 mg subcutaneous vs sumatriptan alone
Text: The relationship between pharmacodynamic activity and the mechanism(s) by which rimegepant exerts its clinical effects is unknown.

Tg.rasH2 mice = experiment: Carcinogenesis study, oral, 26 weeks, Tg.rasH2 mice; format: in vivo, mouse; conditions: oral 0, 10, 100, or 300 mg/k/day for 26 weeks
pregnant rats = experiment: Embryofetal development study, oral administration during organogenesis, rats; format: in vivo, rat
Experimental: Plasma exposures (AUC) at the no-effect dose (60 mg/kg/day) for adverse effects on embryofetal development were approximately 45 times that in humans at the maximum recommended human dose (MRHD) of 75 mg/day.

CYP3A4 [6] = target: T1, CYP3A4; experiment: Dedicated drug interaction study with rifampin (strong CYP3A4 inducer); format: in vivo; set-up: endogenous in cells; host or cells: in vivo, endogenous enzyme of the study subjects; conditions: 75 mg single dose with rifampin at steady state
Experimental: No dedicated drug interaction study was conducted to assess the effect of concomitant administration of a moderate or weak inducer of CYP3A4 on the pharmacokinetics of rimegepant.

P-gp [7] = target: T4, P-gp; experiment: In vitro transporter inhibition; format: in vitro ADME; conditions: at clinically relevant concentrations
OCT2 = OCT2 (Homo sapiens, UniProt O15244); experiment: In vitro transporter inhibition; format: in vitro ADME
Text: (§3) Rimegepant is an inhibitor of OATP1B3, OCT2, and MATE1. No clinical drug interactions are expected for NURTEC ODT with these transporters at clinically relevant concentrations.

MATE1 = MATE1 (Homo sapiens, UniProt Q96FL8); experiment: In vitro transporter inhibition; format: in vitro ADME
MATE1, sequence (Q96FL8 whole entry): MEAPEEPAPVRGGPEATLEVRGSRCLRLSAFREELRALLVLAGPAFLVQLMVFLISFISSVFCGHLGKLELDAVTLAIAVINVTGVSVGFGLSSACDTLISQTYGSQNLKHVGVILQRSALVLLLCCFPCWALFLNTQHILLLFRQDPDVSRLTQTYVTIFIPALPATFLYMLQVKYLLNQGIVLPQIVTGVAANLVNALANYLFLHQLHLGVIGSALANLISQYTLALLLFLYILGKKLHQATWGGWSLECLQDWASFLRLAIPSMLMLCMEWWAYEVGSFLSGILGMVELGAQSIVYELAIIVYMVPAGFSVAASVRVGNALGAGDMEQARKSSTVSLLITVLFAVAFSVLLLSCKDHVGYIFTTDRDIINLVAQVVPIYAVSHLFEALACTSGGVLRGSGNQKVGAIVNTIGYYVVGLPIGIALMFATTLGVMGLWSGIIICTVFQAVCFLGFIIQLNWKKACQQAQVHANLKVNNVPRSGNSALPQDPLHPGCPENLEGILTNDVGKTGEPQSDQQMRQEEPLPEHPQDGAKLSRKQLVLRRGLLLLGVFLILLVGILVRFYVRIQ
Text: as §3

BCRP [8] = target: T3, BCRP; experiment: In vitro transporter inhibition; format: in vitro ADME; conditions: at clinically relevant concentrations
OATP1B3 = OATP1B3 (Homo sapiens, UniProt Q9NPD5); experiment: In vitro transporter substrate study; format: in vitro ADME
Text: (§4) Considering its low renal clearance, rimegepant was not evaluated as a substrate of the OAT1, OAT3, OCT2, MATE1, or MATE2-K.

OATP1B1 [9] = target: T2, OATP1B1; experiment: In vitro transporter substrate study; format: in vitro ADME
Text: as §4

CYP3A4 [10] = target: T1, CYP3A4; experiment: Dedicated drug interaction study with itraconazole (strong CYP3A4 inhibitor); format: in vivo; set-up: endogenous in cells; host or cells: in vivo, endogenous enzyme of the study subjects; conditions: 75 mg single dose with itraconazole at steady state

SMILES: N[C@@H]1c2cccnc2[C@H](OC(=O)N2CCC(n3c(=O)[nH]c4ncccc43)CC2)CC[C@H]1c1cccc(F)c1F [rimegepant, (5S,6S,9R)-5-amino-6-(2,3-difluorophenyl)-6,7,8,9-tetrahydro-5H-cyclohepta[b]pyridin-9-yl 4-(2-oxo-2,3-dihydro-1H-imidazo[4,5-b]pyridin-1-yl)-1-piperidinecarboxylate]
- inhibition of CYP2C19 (CYP2C19): not an inhibitor
- inhibition of CYP3A4 (CYP3A4 [1]): weak inhibitor of CYP3A4 with time-dependent inhibition
- inhibition of UGT1A1 (UGT1A1): not an inhibitor
- inhibition of CYP1A2 (CYP1A2): not an inhibitor
- inhibition of CYP2B6 (CYP2B6): not an inhibitor
- inhibition of CYP2C9 (CYP2C9): not an inhibitor
- inhibition of CYP2D6 (CYP2D6): not an inhibitor
- unchanged rimegepant in excreted feces [2]: 42%
- unchanged rimegepant in excreted urine [2]: 51%
- effects on embryofetal development (pregnant rabbits; 0, 10, 25, or 50 mg/kg/day oral): no adverse effects on embryofetal development
- plasma exposure (AUC) relative to humans at the MRHD (pregnant rabbits; highest dose tested (50 mg/kg/day)): approximately 10 times
- inhibition of OATP1B1 (OATP1B1 [3]): weak inhibitor
- substrate of BCRP (BCRP [4]): substrate
- substrate of P-gp (P-gp [5]): substrate
- resting blood pressure (healthy volunteers): No clinically relevant differences in resting blood pressure
- drug-induced tumors (Tg.rasH2 mice): no evidence of drug-induced tumors
- plasma exposure (AUC) relative to humans at the MRHD of 75 mg/day (pregnant rats; at the no-effect dose (60 mg/kg/day)): approximately 45 times
- effects on embryofetal development (pregnant rats; highest dose tested (300 mg/kg/day), oral, associated with maternal toxicity): decreased fetal body weight and an increased incidence of fetal variations
- no-effect dose for adverse effects on embryofetal development (pregnant rats; oral, pregnant rats): 60 mg/kg/day
- decrease of rimegepant AUC (CYP3A4 [6]): 80%
- decrease of rimegepant Cmax (CYP3A4 [6]): 64%
- inhibition of P-gp (P-gp [7]): not an inhibitor
- inhibition of OCT2 (OCT2): inhibitor
- inhibition of MATE1 (MATE1): inhibitor
- inhibition of BCRP (BCRP [8]): not an inhibitor
- substrate of OATP1B3 (OATP1B3): not a substrate
- substrate of OATP1B1 (OATP1B1 [9]): not a substrate
- increase of rimegepant AUC (CYP3A4 [10]): 4 fold
- increase of rimegepant Cmax (CYP3A4 [10]): ~1.5 fold
